Activity calls are given as the source filed them. Cut-off read from the data, not from the text of the source, for most assays here: actives have a measured Kd and inactives only a lower limit.
What was measured:
[1] = biological target: T1, Serine/threonine-protein kinase D2 (Homo sapiens, UniProt Q9BZL6)
T1 sequence (Q9BZL6 whole entry): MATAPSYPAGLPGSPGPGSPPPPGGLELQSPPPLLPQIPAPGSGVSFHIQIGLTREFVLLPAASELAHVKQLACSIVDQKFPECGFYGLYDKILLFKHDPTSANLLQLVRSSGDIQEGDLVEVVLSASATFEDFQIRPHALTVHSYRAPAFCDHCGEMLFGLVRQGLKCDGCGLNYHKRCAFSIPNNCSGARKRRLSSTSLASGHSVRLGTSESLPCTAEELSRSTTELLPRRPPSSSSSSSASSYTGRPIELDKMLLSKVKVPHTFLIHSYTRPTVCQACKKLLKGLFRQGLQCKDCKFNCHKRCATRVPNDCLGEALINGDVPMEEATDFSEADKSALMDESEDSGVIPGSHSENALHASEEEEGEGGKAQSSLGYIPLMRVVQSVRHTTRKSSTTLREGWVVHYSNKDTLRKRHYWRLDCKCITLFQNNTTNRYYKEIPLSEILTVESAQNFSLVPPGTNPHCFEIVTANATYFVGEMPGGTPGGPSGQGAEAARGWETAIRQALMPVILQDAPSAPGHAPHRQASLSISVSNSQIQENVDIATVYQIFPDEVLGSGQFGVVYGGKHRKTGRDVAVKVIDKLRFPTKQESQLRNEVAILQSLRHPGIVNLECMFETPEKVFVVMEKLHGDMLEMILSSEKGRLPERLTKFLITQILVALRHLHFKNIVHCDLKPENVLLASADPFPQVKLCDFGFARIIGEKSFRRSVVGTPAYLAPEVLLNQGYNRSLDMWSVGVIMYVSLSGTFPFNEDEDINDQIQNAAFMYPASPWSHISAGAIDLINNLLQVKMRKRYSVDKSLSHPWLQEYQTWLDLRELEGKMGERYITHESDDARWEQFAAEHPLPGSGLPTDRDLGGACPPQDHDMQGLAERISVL

[2] = biological target: T2, Serine/threonine-protein kinase 3 (Homo sapiens, UniProt Q13188)
T2 sequence (Q13188 whole entry): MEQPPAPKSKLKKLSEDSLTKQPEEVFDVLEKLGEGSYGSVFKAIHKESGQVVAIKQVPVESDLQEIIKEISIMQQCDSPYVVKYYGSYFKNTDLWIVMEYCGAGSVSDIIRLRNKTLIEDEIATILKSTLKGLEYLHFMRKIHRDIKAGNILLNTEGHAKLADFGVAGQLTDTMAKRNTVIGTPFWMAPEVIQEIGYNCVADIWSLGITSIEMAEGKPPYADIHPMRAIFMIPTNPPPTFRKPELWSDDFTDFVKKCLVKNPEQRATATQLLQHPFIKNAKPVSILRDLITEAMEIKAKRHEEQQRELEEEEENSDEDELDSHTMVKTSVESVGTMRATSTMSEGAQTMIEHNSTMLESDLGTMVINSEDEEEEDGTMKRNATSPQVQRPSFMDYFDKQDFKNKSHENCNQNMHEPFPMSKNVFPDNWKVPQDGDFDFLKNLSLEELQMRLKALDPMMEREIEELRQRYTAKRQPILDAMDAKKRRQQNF

[3] = biological target: Non-receptor tyrosine-protein kinase TYK2 (Homo sapiens, UniProt P29597)
[4] = biological target: cAMP-dependent protein kinase catalytic subunit beta (Homo sapiens, UniProt P22694)
[5] = biological target: Chromodomain-helicase-DNA-binding protein 4 (Homo sapiens, UniProt Q14839)
[6] = biological target: NADH dehydrogenase [ubiquinone] 1 alpha subcomplex subunit 13 (Homo sapiens, UniProt Q9P0J0)
[7] = biological target: T3, Receptor-type tyrosine-protein kinase FLT3 (Homo sapiens, UniProt P36888)
T3 sequence (P36888 whole entry): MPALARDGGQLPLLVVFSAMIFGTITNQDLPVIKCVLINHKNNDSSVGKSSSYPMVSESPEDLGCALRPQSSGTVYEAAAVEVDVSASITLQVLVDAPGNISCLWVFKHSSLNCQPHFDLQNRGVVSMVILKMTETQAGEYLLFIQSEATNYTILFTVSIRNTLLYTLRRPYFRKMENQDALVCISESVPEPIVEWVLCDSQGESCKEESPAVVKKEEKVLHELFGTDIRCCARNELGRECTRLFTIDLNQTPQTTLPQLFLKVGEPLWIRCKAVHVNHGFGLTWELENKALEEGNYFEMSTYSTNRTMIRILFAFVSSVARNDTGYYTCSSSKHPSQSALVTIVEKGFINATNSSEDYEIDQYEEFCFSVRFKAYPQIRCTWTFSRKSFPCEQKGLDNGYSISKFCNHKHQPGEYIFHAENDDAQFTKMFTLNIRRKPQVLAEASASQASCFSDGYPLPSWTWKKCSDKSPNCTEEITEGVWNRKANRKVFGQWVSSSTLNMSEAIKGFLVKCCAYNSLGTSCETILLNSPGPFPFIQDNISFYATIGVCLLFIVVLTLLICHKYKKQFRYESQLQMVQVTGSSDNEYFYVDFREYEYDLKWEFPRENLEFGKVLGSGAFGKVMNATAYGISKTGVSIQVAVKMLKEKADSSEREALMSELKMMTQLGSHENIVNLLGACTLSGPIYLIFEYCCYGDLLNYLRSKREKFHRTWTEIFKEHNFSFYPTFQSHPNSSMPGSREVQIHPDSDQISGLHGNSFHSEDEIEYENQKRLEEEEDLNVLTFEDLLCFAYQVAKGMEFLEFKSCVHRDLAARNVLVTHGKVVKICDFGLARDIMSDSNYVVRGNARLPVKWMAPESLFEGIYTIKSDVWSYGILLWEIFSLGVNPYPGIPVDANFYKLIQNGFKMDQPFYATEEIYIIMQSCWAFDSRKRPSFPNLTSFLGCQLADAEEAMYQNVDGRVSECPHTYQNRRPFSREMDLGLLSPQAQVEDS

[8] = biological target: Serine/threonine-protein kinase N1 (Homo sapiens, UniProt Q16512)
Note: in the data inactive means no Kd found up to 30 µM.

Sequence of Serine/threonine-protein kinase N1 (Q16512 whole entry): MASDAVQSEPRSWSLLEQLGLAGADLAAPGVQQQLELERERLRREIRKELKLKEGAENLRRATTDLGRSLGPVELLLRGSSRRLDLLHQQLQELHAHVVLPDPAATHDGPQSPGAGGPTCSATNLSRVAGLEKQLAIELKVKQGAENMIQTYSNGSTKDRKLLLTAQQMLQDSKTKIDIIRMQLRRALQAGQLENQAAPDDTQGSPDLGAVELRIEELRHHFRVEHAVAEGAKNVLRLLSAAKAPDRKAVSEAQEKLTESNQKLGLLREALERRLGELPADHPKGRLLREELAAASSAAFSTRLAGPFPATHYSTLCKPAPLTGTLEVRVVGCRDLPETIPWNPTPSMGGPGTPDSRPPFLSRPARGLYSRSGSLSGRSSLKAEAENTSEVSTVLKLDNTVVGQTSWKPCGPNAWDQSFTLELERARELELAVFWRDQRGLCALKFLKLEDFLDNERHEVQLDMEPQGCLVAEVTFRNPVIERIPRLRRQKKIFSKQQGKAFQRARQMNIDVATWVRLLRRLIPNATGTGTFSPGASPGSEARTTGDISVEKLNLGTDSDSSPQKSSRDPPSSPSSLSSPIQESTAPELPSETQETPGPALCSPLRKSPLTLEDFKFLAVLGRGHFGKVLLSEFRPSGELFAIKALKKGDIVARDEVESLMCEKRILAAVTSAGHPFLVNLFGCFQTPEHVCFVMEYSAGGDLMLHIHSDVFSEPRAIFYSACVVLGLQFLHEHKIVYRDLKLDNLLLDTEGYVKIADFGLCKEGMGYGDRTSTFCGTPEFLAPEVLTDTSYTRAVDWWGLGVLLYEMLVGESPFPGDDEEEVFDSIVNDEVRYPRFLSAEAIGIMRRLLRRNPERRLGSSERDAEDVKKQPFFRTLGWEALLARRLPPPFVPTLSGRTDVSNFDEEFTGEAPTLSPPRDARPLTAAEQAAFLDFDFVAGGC
Sequence of Non-receptor tyrosine-protein kinase TYK2 (P29597 whole entry): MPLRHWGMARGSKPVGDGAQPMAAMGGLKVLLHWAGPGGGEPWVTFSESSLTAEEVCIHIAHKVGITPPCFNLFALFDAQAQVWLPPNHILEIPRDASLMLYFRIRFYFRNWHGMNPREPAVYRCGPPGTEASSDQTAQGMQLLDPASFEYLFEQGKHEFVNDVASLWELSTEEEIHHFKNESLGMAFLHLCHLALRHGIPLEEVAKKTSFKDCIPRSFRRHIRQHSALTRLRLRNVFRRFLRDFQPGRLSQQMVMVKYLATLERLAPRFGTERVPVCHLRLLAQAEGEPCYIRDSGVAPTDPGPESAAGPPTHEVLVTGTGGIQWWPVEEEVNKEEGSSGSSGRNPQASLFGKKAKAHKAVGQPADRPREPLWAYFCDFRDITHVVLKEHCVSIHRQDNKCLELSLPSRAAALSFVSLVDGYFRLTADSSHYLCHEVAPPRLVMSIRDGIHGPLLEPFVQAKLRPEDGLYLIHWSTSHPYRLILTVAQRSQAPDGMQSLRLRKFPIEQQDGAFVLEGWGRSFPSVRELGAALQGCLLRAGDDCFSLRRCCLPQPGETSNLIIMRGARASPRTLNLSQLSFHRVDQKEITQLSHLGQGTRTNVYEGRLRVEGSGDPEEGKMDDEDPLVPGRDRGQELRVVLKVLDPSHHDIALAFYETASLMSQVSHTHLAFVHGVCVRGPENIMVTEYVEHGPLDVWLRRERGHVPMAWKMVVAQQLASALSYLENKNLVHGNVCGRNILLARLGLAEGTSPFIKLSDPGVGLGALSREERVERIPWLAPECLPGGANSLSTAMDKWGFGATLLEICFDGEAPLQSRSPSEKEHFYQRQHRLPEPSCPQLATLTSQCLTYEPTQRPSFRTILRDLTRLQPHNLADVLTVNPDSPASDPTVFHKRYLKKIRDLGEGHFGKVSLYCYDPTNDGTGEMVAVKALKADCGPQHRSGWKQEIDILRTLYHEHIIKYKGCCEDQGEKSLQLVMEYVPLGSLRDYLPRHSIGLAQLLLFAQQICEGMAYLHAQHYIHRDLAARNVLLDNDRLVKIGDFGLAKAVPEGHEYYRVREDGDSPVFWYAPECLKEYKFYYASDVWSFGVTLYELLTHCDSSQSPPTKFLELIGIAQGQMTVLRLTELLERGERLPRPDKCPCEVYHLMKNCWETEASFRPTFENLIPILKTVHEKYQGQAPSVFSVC
Sequence of Chromodomain-helicase-DNA-binding protein 4 (Q14839 whole entry): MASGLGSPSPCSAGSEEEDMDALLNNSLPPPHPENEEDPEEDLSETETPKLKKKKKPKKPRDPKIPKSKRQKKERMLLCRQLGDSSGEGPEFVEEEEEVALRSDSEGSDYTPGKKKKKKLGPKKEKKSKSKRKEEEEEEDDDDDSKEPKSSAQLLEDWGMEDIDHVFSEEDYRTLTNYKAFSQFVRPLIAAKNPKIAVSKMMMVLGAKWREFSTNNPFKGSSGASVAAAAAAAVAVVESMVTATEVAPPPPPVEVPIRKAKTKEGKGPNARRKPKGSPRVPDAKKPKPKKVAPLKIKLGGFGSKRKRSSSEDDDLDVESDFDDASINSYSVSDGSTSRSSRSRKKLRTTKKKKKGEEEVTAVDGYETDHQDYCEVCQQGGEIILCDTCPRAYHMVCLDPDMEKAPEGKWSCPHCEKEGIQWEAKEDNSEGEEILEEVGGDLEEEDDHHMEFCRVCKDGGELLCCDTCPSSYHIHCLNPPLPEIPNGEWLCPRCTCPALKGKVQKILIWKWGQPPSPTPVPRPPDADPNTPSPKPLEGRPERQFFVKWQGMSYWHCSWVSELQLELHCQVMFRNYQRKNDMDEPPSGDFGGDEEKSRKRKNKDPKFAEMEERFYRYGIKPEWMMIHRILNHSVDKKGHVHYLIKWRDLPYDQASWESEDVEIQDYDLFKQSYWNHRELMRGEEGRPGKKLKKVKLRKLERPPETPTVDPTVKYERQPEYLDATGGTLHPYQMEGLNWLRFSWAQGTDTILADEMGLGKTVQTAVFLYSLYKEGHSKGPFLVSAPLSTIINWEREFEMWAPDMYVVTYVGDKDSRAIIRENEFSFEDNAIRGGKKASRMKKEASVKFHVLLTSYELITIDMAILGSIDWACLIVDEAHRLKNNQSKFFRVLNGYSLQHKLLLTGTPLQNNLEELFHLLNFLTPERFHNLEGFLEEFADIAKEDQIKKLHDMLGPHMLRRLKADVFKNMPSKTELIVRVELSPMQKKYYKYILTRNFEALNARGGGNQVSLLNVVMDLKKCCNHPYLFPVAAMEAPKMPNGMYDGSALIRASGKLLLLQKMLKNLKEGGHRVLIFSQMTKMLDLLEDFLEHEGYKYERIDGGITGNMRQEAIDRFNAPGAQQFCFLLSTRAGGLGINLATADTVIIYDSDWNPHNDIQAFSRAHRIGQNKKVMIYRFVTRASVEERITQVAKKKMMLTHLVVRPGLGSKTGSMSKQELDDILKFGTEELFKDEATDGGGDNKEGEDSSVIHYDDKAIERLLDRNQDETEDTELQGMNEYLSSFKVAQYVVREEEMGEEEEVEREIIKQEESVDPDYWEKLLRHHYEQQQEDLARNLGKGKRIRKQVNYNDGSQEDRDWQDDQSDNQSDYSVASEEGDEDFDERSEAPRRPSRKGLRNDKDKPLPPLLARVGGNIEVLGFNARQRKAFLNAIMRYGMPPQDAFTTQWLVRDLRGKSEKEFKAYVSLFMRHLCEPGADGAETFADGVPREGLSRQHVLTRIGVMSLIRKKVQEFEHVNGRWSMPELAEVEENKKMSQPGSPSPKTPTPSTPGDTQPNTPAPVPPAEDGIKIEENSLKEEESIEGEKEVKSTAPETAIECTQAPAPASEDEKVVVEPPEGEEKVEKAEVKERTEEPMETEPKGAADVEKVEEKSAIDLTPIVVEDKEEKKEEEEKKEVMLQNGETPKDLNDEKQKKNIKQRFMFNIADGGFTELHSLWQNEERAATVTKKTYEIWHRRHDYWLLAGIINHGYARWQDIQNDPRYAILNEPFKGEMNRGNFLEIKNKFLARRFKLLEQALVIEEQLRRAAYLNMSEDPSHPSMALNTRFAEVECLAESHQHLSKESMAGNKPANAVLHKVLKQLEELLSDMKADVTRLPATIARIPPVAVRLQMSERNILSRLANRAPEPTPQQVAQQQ
Sequence of NADH dehydrogenase [ubiquinone] 1 alpha subcomplex subunit 13 (Q9P0J0 whole entry, one chain of several): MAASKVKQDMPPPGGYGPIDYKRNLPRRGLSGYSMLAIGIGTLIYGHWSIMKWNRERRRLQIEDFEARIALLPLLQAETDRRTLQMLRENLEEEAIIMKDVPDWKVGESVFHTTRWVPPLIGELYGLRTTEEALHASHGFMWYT

| SMILES | Kd [1] | Kd [2] | Kd [3] | Kd [4] | Kd [5] | Kd [6] | Kd [7] | Kd [8] |
| --- | --- | --- | --- | --- | --- | --- | --- | --- |
| CN(C)C(=O)c1cc2cnc(Nc3ccc(N4CCNCC4)cn3)nc2n1C1CCCC1 [RIBOCICLIB] | 25 µM (active) | > 30 µM (inactive) | > 30 µM (inactive) | > 30 µM (inactive) | > 30 µM (inactive) | > 30 µM (inactive) | > 30 µM (inactive) | > 30 µM (inactive) |
| C[C@@H]1CN(Cc2ccc(F)cc2)[C@@H](C)CN1C(=O)c1cc2c(C(=O)C(=O)N(C)C)cn(C)c2cc1Cl [TALMAPIMOD] | > 30 µM (inactive) | > 30 µM (inactive) | > 30 µM (inactive) | > 30 µM (inactive) | > 30 µM (inactive) | > 30 µM (inactive) | > 30 µM (inactive) | > 30 µM (inactive) |
| O=C1NC(=O)/C(=C/c2ccc3nccc(-c4ccncc4)c3c2)S1 [GSK-1059615] | > 30 µM (inactive) | > 30 µM (inactive) | > 30 µM (inactive) | > 30 µM (inactive) | > 30 µM (inactive) | > 30 µM (inactive) | > 30 µM (inactive) | > 30 µM (inactive) |
| Cn1cc(-c2ccc3nnc(C(F)(F)c4ccc5ncccc5c4)n3n2)cn1 [JNJ-38877605] | > 30 µM (inactive) | > 30 µM (inactive) | > 30 µM (inactive) | > 30 µM (inactive) | > 30 µM (inactive) | > 30 µM (inactive) | > 30 µM (inactive) | > 30 µM (inactive) |
| CO[C@H]1C[C@@H]2CC[C@@H](C)[C@@](O)(O2)C(=O)C(=O)N2CCCC[C@H]2C(=O)O[C@H]([C@H](C)C[C@@H]2CC[C@@H](OCCO)[C@H](OC)C2)CC(=O)[C@H](C)/C=C(\C)[C@@H](O)[C@@H](OC)C(=O)[C@H](C)C[C@H](C)/C=C/C=C/C=C/1C [EVEROLIMUS] | > 30 µM (inactive) | > 30 µM (inactive) | > 30 µM (inactive) | > 30 µM (inactive) | > 30 µM (inactive) | > 30 µM (inactive) | > 30 µM (inactive) | > 30 µM (inactive) |
| CC(C)Nc1cc(-c2c[nH]c(C(=O)N[C@H](CO)c3cccc(Cl)c3)c2)c(Cl)cn1 [ULIXERTINIB] | 6.34 µM (active) | > 30 µM (inactive) | > 30 µM (inactive) | > 30 µM (inactive) | > 30 µM (inactive) | > 30 µM (inactive) | > 30 µM (inactive) | > 30 µM (inactive) |
| COc1cc2nccc(Oc3ccc(NC(=O)NC4CC4)c(Cl)c3)c2cc1C(N)=O [LENVATINIB] | > 30 µM (inactive) | > 30 µM (inactive) | > 30 µM (inactive) | > 30 µM (inactive) | > 30 µM (inactive) | > 30 µM (inactive) | > 30 µM (inactive) | > 30 µM (inactive) |
| Cc1ccc(-n2nc(C(C)(C)C)cc2NC(=O)NCc2cc(F)ccc2Oc2ccc3c(cnn3CCO)c2)cc1 [PEXMETINIB] | > 30 µM (inactive) | > 30 µM (inactive) | > 30 µM (inactive) | > 30 µM (inactive) | > 30 µM (inactive) | > 30 µM (inactive) | > 30 µM (inactive) | > 30 µM (inactive) |
| CC(=O)Nc1cccc(-n2c(=O)n(C3CC3)c(=O)c3c(Nc4ccc(I)cc4F)n(C)c(=O)c(C)c32)c1 [TRAMETINIB] | > 30 µM (inactive) | > 30 µM (inactive) | > 30 µM (inactive) | > 30 µM (inactive) | > 30 µM (inactive) | > 30 µM (inactive) | > 30 µM (inactive) | > 30 µM (inactive) |
| COC(=O)N[C@@H](C)CNc1nccc(-c2cn(C(C)C)nc2-c2cc(Cl)cc(NS(C)(=O)=O)c2F)n1 [ENCORAFENIB] | > 30 µM (inactive) | > 30 µM (inactive) | > 30 µM (inactive) | > 30 µM (inactive) | > 30 µM (inactive) | > 30 µM (inactive) | > 30 µM (inactive) | > 30 µM (inactive) |
| O=C(Nc1ccc(-c2ccnc(Nc3ccc(N4CCOCC4)cc3)n2)cc1)C1CCCN1 (stereo unspecified) [XL-019] | 66.9 µM (active) | > 30 µM (inactive) | > 30 µM (inactive) | > 30 µM (inactive) | > 30 µM (inactive) | > 30 µM (inactive) | 12.5 µM (active) | > 30 µM (inactive) |
| CCn1c(=O)c(-c2cc[nH]n2)cc2c(C)nc(N)nc21 [VOXTALISIB] | > 30 µM (inactive) | > 30 µM (inactive) | > 30 µM (inactive) | > 30 µM (inactive) | > 30 µM (inactive) | > 30 µM (inactive) | > 30 µM (inactive) | > 30 µM (inactive) |
| Cc1ccc(NC(=O)c2ccc(CN3CC[C@H](N(C)C)C3)c(C(F)(F)F)c2)cc1Nc1nccc(-c2cncnc2)n1 [BAFETINIB] | > 30 µM (inactive) | > 30 µM (inactive) | > 30 µM (inactive) | > 30 µM (inactive) | > 30 µM (inactive) | > 30 µM (inactive) | > 30 µM (inactive) | > 30 µM (inactive) |
| COc1ccc(-c2ccc3c(N4CCOC[C@@H]4C)nc(N4CCOC[C@@H]4C)nc3n2)cc1CO [AZD-8055] | > 30 µM (inactive) | > 30 µM (inactive) | > 30 µM (inactive) | > 30 µM (inactive) | > 30 µM (inactive) | > 30 µM (inactive) | > 30 µM (inactive) | > 30 µM (inactive) |
| Cn1cc(-c2ccc(F)c(C(F)(F)F)c2)nc1C1CCN(c2ncnc3[nH]ncc23)CC1 [LY-2584702] | > 30 µM (inactive) | > 30 µM (inactive) | > 30 µM (inactive) | > 30 µM (inactive) | > 30 µM (inactive) | > 30 µM (inactive) | > 30 µM (inactive) | > 30 µM (inactive) |
| N[C@@H]1CCCN(c2c(/C=C3\SC(=O)NC3=O)cccc2-c2ccccc2)C1 | > 30 µM (inactive) | > 30 µM (inactive) | > 30 µM (inactive) | > 30 µM (inactive) | > 30 µM (inactive) | > 30 µM (inactive) | > 30 µM (inactive) | > 30 µM (inactive) |
| CNC(=O)CN1CCC(Oc2cc3c(Nc4cccc(Cl)c4F)ncnc3cc2OC)CC1 [SAPITINIB] | > 30 µM (inactive) | > 30 µM (inactive) | > 30 µM (inactive) | > 30 µM (inactive) | > 30 µM (inactive) | > 30 µM (inactive) | > 30 µM (inactive) | > 30 µM (inactive) |

Reference: ChEMBL document CHEMBL3991601, “The target landscape of clinical kinase drugs” (Science, 2017)
